Reference: US20130131075A1, “NEW COMPOUNDS” (Boehringer Ingelheim International GmbH, priority 2009, published 2013)

Target: T1, cynomolgus BK1-receptor (Macaca fascicularis, UniProt Q3BCU0)
T1 construct: expressed in transfected cells; host or cells: CHO cells (homogenate)
T1 sequence (Q3BCU0 1-352): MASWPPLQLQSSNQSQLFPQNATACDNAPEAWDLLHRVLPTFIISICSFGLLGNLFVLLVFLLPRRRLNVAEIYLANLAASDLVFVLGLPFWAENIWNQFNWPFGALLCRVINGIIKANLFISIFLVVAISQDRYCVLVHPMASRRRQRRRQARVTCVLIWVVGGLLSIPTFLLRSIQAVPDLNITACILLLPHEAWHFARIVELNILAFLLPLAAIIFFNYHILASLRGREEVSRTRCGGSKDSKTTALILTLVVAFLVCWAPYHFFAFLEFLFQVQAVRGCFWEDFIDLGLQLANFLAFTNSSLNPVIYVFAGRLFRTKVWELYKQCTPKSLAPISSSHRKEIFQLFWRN
Test: cynoBK1-receptor binding assay
Conditions: CHO cells expressing cynomolgus BK1-receptor, radioligand kallidine (DesArg10,Leu9)
In short: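 Radioligand competition on homogenates of CHO cells expressing cynomolgus BK1 receptor (50 to 250 μg protein/assay), incubated 60-180 minutes at ambient temperature with 0.5 to 5.0 nM [3H]kallidine (DesArg10,Leu9) plus increasing test compound. Filtration binding; non-specific defined with 1.0 μM kallidine (DesArg10); Ki from non-linear curve fitting.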

| inhibition at 10 µM (at 10 μgmol/L) [%] | Ki [nM] | % inhibition at 10 μgmol/L (at 10 μgmol/L) [%] | Structure (SMILES) |
| --- | --- | --- | --- |
| 58 | – | – | CN(C)CCCCC(=O)NC1(C(=O)NCc2ccc(Nc3ccccc3C(F)(F)F)cc2)CC1 [(10)] |
| 107 | – | – | O=C(NC1(C(=O)NCc2ccc(Nc3ccccc3C(F)(F)F)cc2)CC1)c1ccno1 [(24)] |
| 99 | – | – | O=C(NC1(C(=O)NCc2ccc(Nc3ccccc3C(F)(F)F)cc2)CC1)c1cccnc1 [(11)] |
| – | 21 | – | CNc1ncc(C(=O)N[C@@]2(C(=O)NCc3ncc(Nc4ccc(Cl)cc4C(F)(F)F)cc3Cl)CCOC2)cn1 [(281)] |
| – | 28 | – | O=C(NC1(C(=O)NCc2ccc(Nc3ccc(F)cc3C(F)(F)F)cn2)CC1)c1cncc(O)c1 [(243)] |
| 84 | – | – | O=C(N[C@@]1(C(=O)NCc2ccc(Nc3ccccc3C(F)(F)F)cc2)CCOC1)C1CCOC1 (stereo partly shown) [(60)] |
| – | 151 | – | Nc1cncc(C(=O)N[C@@]2(C(=O)NCc3ncc(Nc4c(F)cccc4C(F)(F)F)cc3Cl)CCOC2)c1 [(237)] |
| 87 | – | – | Nc1cc(C(=O)NC2(C(=O)NCc3ccc(Nc4ccc(F)cc4C(F)(F)F)cn3)CC2)[nH]n1 [(185)] |
| 99 | > 500 | – | N#Cc1c(F)cccc1Nc1ccc(CNC(=O)C2(NC(=O)c3cncnc3)CC2)cc1 [(115)] |
| – | 22 | – | COc1cc(C(=O)NC2(C(=O)NCc3ccc(Nc4ccc(Cl)cc4C(F)(F)F)cn3)CC2)on1 [(356)] |
| 109 | 135 | – | O=C(N[C@@]1(C(=O)NCc2ccc(Nc3ccccc3C(F)(F)F)cc2)CCOC1)c1cnc(O)nc1 [(90)] |
| – | 68 | – | CNc1ncc(C(=O)N[C@@]2(C(=O)NCc3ncc(Nc4c(F)cccc4C(F)(F)F)cc3Cl)CCOC2)cn1 [(241)] |
| – | 567 | – | O=C(N[C@@]1(C(=O)NCc2ccc(Nc3ccc(Cl)cc3C(F)(F)F)cc2)CCOC1)c1cncs1 [(336)] |
| 99 | 19 | – | Cc1ncc(C(=O)NC2(C(=O)NCc3ccc(Nc4ccc(F)cc4C#N)cc3)CC2)cn1 [(181)] |
| 54 | – | – | O=C(NC1(C(=O)NCc2ccc(Nc3cccc(Cl)c3Cl)cc2)CC1)c1cncnc1 [(1)] |
| 77 | > 500 | – | O=C(NC1(C(=O)NCc2ccc(Nc3ccc(F)cc3)cc2)CC1)c1cncnc1 [(37)] |
| 90 | 235 | – | CNc1cncc(C(=O)NC2(C(=O)NCc3ccc(Nc4ccc(F)cc4C(F)(F)F)cn3)CC2)n1 [(168)] |
| – | 95 | – | Cn1cc(C(=O)NC2(C(=O)NCc3ccc(Nc4ccc(Cl)cc4C(F)(F)F)cn3)CC2)cn1 [(373)] |
| 27 | – | – | CN(c1ccccc1)c1ccc(CNC(=O)C2(NC(=O)c3cncnc3)CC2)cc1 [(109)] |
| – | 13 | – | Cn1ncc(C(=O)NC2(C(=O)NCc3ccc(Nc4ccc(F)cc4C(F)(F)F)cn3)CC2)cc1=O [(221)] |
| – | 61 | – | COc1cncc(C(=O)NC2(C(=O)NCc3ccc(Nc4ccc(F)cc4C(F)(F)F)cn3)CC2)c1 [(376)] |
| – | 84 | – | O=C(NC1(C(=O)NCc2ccc(Nc3ccc(Cl)cc3C(F)(F)F)cn2)CC1)c1ccnc(O)c1 [(207)] |
| – | 68 | – | O=C(CC(F)(F)F)N[C@@]1(C(=O)NCc2ncc(Nc3ccc(F)cc3C(F)(F)F)cc2Cl)CCOC1 [(225)] |

| inhibition at 10 µM (at 10 μgmol/L) [%] | Ki [nM] | % inhibition at 10 μgmol/L (at 10 μgmol/L) [%] | Structure (SMILES) |
| --- | --- | --- | --- |
| – | 66 | – | O=C(N[C@@]1(C(=O)NCc2ncc(Nc3ccc(Cl)cc3C(F)(F)F)cc2F)CCOC1)c1cncc(O)c1 [(331)] |
| – | 281 | – | CN(C)c1ccc(C(=O)NC2(C(=O)NCc3ccc(Nc4ccc(Br)cc4C(F)(F)F)cn3)CC2)cn1 [(268)] |
| – | – | 101 | O=C(N[C@@]1(C(=O)NCc2ccc(Nc3ccccc3C(F)(F)F)cc2)CCOC1)c1cncnc1 [(155)] |
| – | 59 | – | Nc1ccc(C(=O)N[C@@]2(C(=O)NCc3ncc(Nc4ccc(Cl)cc4C(F)(F)F)cc3Cl)CCOC2)cn1 [(297)] |
| – | 141 | – | Nc1cncc(C(=O)NC2(C(=O)NCc3ccc(Nc4ccccc4C(F)(F)F)cc3)COC2)c1 [(273)] |
| 87 | – | – | COc1cc(OC)cc(C(=O)N[C@@]2(C(=O)NCc3ccc(Nc4ccccc4C(F)(F)F)cc3)CCOC2)c1 [(103)] |
| 80 | – | – | Cn1cc(C(=O)N[C@@]2(C(=O)NCc3ccc(Nc4ccccc4C(F)(F)F)cc3)CCOC2)nn1 [(88)] |
| 107 | 1.8 | – | O=C(NC1(C(=O)NCc2ncc(Nc3ccc(F)cc3C(F)(F)F)cc2F)CC1)c1cncnc1 [(151)] |
| – | 52 | – | Cc1cncc(C(=O)NC2(C(=O)NCc3ccc(Nc4ccc(Cl)cc4C(F)(F)F)cn3)CC2)c1 [(353)] |
| 101 | – | – | CCC(=O)NC1(C(=O)NCc2ccc(Nc3ccccc3C(F)(F)F)cc2)CC1 [(13)] |
| 77 | > 500 | – | N#Cc1ccc(F)cc1Nc1ccc(CNC(=O)C2(NC(=O)c3cncnc3)CC2)cc1 [(114)] |
| 71 | – | – | O=C(N[C@@]1(C(=O)NCc2ccc(Nc3cc(F)ccc3C(F)(F)F)cn2)CCOC1)c1cncnc1 [(48)] |
| – | 648 | – | Nc1ccc(C(=O)N[C@@]2(C(=O)NCc3ccc(Nc4ccc(F)cc4C(F)(F)F)cn3)CCOC2)cn1 [(349)] |
| 99 | – | – | O=C1CCC(C(=O)N[C@@]2(C(=O)NCc3ccc(Nc4ccccc4C(F)(F)F)cc3)CCOC2)N1 (stereo partly shown) [(56)] |
| – | 8 | – | CC(NC(=O)C1(NC(=O)c2cncnc2)CC1)c1ncc(Nc2ccc(F)cc2C#N)cc1F (stereo not shown) [(212)] |
| – | 6.8 | – | CC(C)Nc1ncc(C(=O)NC2(C(=O)NCc3ccc(Nc4ccc(Cl)cc4C(F)(F)F)cn3)CC2)cn1 [(382)] |
| 110 | 8.3 | – | CC(NC(=O)C1(NC(=O)c2cncnc2)CC1)c1ccc(Nc2c(F)cccc2C(F)(F)F)cn1 (stereo not shown) [(123)] |
| – | 31 | – | N#Cc1ccccc1Nc1cnc(CNC(=O)C2(NC(=O)c3cncnc3)CC2)c(F)c1 [(295)] |
| 113 | 9 | – | Cc1ncc(C(=O)N[C@@]2(C(=O)NCc3ccc(Nc4ccccc4C(F)(F)F)cc3)CCOC2)cn1 [(83)] |
| – | 1.9 | – | CC(NC(=O)C1(NC(=O)c2cncnc2)CC1)c1ncc(Nc2ccc(Cl)cc2C(F)(F)F)cc1F (stereo not shown) [(203)] |
| – | 20 | – | CCNc1ccc(C(=O)NC2(C(=O)NCc3ccc(Nc4ccc(Br)cc4C(F)(F)F)cn3)CC2)cn1 [(334)] |
| 97 | > 500 | – | O=C(N[C@@]1(C(=O)NCc2ccc(Nc3ccccc3C(F)(F)F)cc2)CCOC1)c1ccnc(Cl)c1 [(61)] |
| – | 15 | – | O=C(NC1(C(=O)NCc2ccc(Nc3ccc(F)cc3C(F)(F)F)cn2)CC1)c1cnc2cc[nH]c2c1 [(255)] |

| inhibition at 10 µM (at 10 μgmol/L) [%] | Ki [nM] | % inhibition at 10 μgmol/L (at 10 μgmol/L) [%] | Structure (SMILES) |
| --- | --- | --- | --- |
| 86 | – | – | O=C(N[C@@]1(C(=O)NCc2ccc(Nc3ccccc3C(F)(F)F)cc2)CCOC1)c1ccncc1 [(95)] |
| – | 508 | – | N#CC1(C(=O)NC2(C(=O)NCc3ccc(Nc4ccc(Cl)cc4C(F)(F)F)cn3)CC2)CC1 [(367)] |
| 69 | > 500 | – | N#Cc1cc(OC(F)(F)F)ccc1Nc1ccc(CNC(=O)C2(NC(=O)c3cncnc3)CC2)cc1 [(161)] |
| 91 | 97 | – | O=C(N[C@@]1(C(=O)NCc2ccc(Nc3ccc(F)cc3C(F)(F)F)cn2)CCOC1)c1cnc2[nH]cnc2c1 [(159)] |
| 105 | 37 | – | Nc1cc(C(=O)NC2(C(=O)NCc3ccc(Nc4ccc(F)cc4C(F)(F)F)cn3)CC2)on1 [(150)] |
| – | 47 | – | CNc1cncc(C(=O)N[C@@]2(C(=O)NCc3ncc(Nc4ccc(F)cc4C(F)(F)F)cc3Cl)CCOC2)c1 [(269)] |
| – | 2.5 | – | Cc1ncc(C(=O)NC2(C(=O)NCc3ncc(Nc4ccc(Cl)cc4C(F)(F)F)cc3C)CC2)cn1 [(360)] |
| – | 43 | – | O=C(NC1(C(=O)NCc2ccc(Nc3ccc(Cl)cc3C(F)(F)F)cn2)CC1)c1cnc(O)nc1 [(350)] |
| – | 15 | – | O=C(NC1(C(=O)NCc2ccc(Nc3ccc(Cl)cc3C(F)(F)F)cn2)CC1)c1ccc(NC2CC2)nc1 [(389)] |
| 60 | – | – | O=C(N[C@@]1(C(=O)NCc2ccc(Nc3ccccc3C(F)(F)F)cc2)CCOC1)c1ccc(=O)[nH]n1 [(62)] |
| – | 17 | – | CC(=O)Nc1ncc(C(=O)NC2(C(=O)NCc3ccc(Nc4ccc(F)cc4C(F)(F)F)cn3)CC2)s1 [(257)] |
| 81 | > 500 | – | N#Cc1ccc(Nc2ccc(CNC(=O)C3(NC(=O)c4cncnc4)CC3)nc2)c(C(F)(F)F)c1 [(197)] |
| – | 37 | – | O=C(NC1(C(=O)NCc2ccc(Nc3ccc(Cl)cc3C(F)(F)F)cn2)CC1)c1ccno1 [(369)] |
| – | 105 | – | O=C(NC1(C(=O)NCc2ccc(Nc3ccc(Br)cc3C(F)(F)F)cn2)CC1)c1ccc(O)nc1 [(234)] |
| 42 | – | – | O=C1CCCC(C(=O)N[C@@]2(C(=O)NCc3ccc(Nc4ccccc4C(F)(F)F)cc3)CCOC2)C1 (stereo partly shown) [(69)] |
| – | 10 | – | Cc1ncc(C(=O)N[C@@]2(C(=O)NCc3ncc(Nc4ccc(Cl)cc4C(F)(F)F)cc3F)CCOC2)cn1 [(277)] |
| 86 | – | – | CC(NC(=O)C1(NC(=O)c2cncnc2)CC1)c1ccc(Nc2ccc(OC(F)F)cc2)cc1 (stereo not shown) [(25)] |
| – | 427 | – | Cc1cncc(C(=O)N[C@@]2(C(=O)NCc3ccc(Nc4ccc(F)cc4C(F)(F)F)cc3)CCOC2)c1 [(308)] |
| – | 506 | – | COc1ccc(C(=O)NC2(C(=O)NCc3ccc(Nc4ccc(Cl)cc4C(F)(F)F)cn3)CC2)cn1 [(240)] |
| – | 312 | – | COc1cncc(C(=O)N[C@@]2(C(=O)NCc3ccc(Nc4ccc(Cl)cc4C(F)(F)F)cc3)CCOC2)c1 [(337)] |
| 107 | 11 | – | Nc1cncc(C(=O)NC2(C(=O)NCc3ccc(Nc4ccc(Br)cc4C(F)(F)F)cn3)CC2)c1 [(178)] |
